This is an account of results in US7781477B2, “Therapeutic use of N-(1H-Indolyl)-1H-indole-2-carboxamide derivatives” (Sanofi-Aventis, priority 2004, dated 2010).

The target of one experiment is T1, TRPV1 receptor (Rattus norvegicus, UniProt O35433).
T1 construct: The neurons of the DRG naturally express the TRPV1 receptor; endogenous in cells; host or cells: primary culture of newborn rat dorsal root ganglion (DRG) neurons
Kind of experiment: Inhibition of the current induced by capsaicin with regard to rat DRGs (whole cell patch clamp). The experiment is classed as cell-based. The note with it: DRG neuron; % inhibition of the control capsaicin (300 nM) response; compound at 10 nM; primary culture of newborn rat DRG neurons; read-out: % Inhibition by the DRG patch technique. The protocol:
Test of the Inhibition of the Current Induced by Capsaicin with Regard to Rat DRGs
Primary Culture of Rat Dorsal Route Ganglion (DRG) Cells:
The neurons of the DRG naturally express the TRPV1 receptor.
Primary cultures of DRGs of newborn rats are prepared from 1-day-old rats. Briefly, after dissection, the ganglions are trypsinized and their cells dissociated mechanically by gentle trituration. […]
The measurement chambers (volume 800 μl) comprising the cell preparation are placed on the stage of an inverted microscope (Olympus IMT2) equipped with Hoffman optics (Modulation Contrast, New York) and are observed at a magnification of 400×. […] The overall currents (membrane potential set at −60 mV) are recorded with an Axopatch 1D amplifier (Axon Instruments, Foster City, Calif.) connected to a PC controlled by Pclamp8 software (Axon Instruments). The current plots are recorded on paper and simultaneously recorded digitally (sampling frequency 15 to 25 Hz) and acquired on the hard disk of the PC.
The application of a 300 nM capsaicin solution produces an incoming cationic current with regard to the DRG cells (voltage set at −70 mV). […] The results are expressed as % of inhibition of the control capsaicin response.

The next experiment deals with T2, TRPV1 receptors (Mus musculus, UniProt Q704Y3).
T2 construct: from tissue; host or cells: living mouse, cornea (C fibers)
T2 sequence (Q704Y3 whole entry): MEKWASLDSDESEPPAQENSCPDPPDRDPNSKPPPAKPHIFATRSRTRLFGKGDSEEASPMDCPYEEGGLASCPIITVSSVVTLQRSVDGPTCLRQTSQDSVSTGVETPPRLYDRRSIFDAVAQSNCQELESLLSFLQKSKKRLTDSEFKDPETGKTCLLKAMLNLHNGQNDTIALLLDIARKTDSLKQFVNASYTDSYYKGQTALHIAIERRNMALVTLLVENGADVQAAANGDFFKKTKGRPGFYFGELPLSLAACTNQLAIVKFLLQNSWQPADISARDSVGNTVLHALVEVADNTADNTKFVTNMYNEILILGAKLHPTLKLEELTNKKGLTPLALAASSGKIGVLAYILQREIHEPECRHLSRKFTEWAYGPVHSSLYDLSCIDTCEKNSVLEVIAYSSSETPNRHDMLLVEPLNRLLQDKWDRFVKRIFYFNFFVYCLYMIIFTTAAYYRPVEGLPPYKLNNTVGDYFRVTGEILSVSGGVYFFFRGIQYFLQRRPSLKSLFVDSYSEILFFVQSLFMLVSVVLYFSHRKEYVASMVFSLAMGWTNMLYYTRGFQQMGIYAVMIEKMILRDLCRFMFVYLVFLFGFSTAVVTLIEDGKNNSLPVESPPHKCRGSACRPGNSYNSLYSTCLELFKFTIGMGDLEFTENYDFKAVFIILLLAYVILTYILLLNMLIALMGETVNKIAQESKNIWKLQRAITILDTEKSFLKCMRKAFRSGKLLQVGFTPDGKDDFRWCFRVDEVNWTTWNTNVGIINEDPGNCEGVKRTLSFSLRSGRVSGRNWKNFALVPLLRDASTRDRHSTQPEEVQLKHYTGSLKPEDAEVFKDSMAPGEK
The experiment is described as follows: Mouse corneal irritation test (capsaicin ocular instillation). Type of experiment: in vivo. The note with it: percentage of protection against rubbing of the eye induced by 2 μl of 160 μM capsaicin, pretreatment time 1 h. The protocol: Mouse Corneal Irritation Test
The irritating nature of capsaicin is easily assessed on the cornea since this organ is one of the most innervated by C fibers. In this context, according to preliminary experiments, the application of a very small amount of capsaicin (2 μl at a concentration of 160 μM) at the surface of the cornea of an animal results in a number of kinds of stereotyped behavior related to irritation which are easy to record. These include: blinking of the eye, rubbing of the instilled eye by the ipsilateral front paw, rubbing of the face with the two front paws and scratching of the ipsilateral face by the hind paw. […] Its appearance is furthermore also normal. […] It may be concluded therefrom that the duration of action of capsaicin at these doses is less than 2 minutes. […]
In practice, the test product is administered orally and, with a delay (pretreatment time: t) which depends on the pharmacokinetic data, the animal receives the ocular instillation of 2 μl of a 160 μM capsaicin solution prepared as indicated above. During observation for 2 minutes following the instillation, the number of rubbing actions on the instilled eye by the ipsilateral front paw is recorded.
For a given animal, the percentage of protection is calculated as follows: P=100−((number of scratching actions observed/mean number of scratching actions of the group treated with the solvent)×100). […]

T1 sequence (O35433 whole entry): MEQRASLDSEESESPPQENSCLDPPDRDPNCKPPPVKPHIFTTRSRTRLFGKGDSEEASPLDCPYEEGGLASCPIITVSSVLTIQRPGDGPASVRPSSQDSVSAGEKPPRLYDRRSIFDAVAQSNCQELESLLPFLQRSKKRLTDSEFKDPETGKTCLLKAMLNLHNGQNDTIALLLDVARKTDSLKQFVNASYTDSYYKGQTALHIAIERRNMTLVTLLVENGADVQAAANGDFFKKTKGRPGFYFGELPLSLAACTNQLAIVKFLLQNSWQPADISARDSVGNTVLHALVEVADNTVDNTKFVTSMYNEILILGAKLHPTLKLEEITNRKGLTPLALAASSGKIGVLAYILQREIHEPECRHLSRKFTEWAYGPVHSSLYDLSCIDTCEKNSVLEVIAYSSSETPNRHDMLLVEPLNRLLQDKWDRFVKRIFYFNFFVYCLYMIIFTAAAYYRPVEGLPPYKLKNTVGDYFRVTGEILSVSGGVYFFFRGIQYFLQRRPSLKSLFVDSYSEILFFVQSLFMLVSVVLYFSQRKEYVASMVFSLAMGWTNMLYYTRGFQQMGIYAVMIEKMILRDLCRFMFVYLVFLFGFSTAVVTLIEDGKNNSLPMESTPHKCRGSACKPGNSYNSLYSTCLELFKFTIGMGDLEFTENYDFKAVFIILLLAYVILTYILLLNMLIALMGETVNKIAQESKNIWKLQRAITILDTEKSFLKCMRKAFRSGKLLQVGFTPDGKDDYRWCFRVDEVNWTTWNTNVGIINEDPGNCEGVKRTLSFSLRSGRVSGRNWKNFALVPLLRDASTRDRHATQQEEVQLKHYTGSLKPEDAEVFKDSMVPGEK

`Cn1ccc2cc(NC(=O)c3cc4ccccc4n3Cc3cccc(C(F)(F)F)c3)ccc21` [Compound No. 1, N-(1-Methyl-1H-indol-5-yl)-1-(3-trifluoromethylbenzyl)-1H-indole-2-carboxamide]: the inhibition (as a rule, the relative decrease from the control value, in per cent) at 0.01 µM on TRPV1 receptor amounted to 56%. Besides, at TRPV1 receptors, the “% P - (t) at 60 mg/kg (p.o.) - (n = 8)” value was 26% - (1 h).
